Data on 24 compounds can be found in patent US4533554A, “Quinone derivatives and use” (Takeda Chemical Industries, Ltd., priority 1979, dated 1985).

Assay [1] concerns SHR (spontaneously hypertensive rats). Briefly: Blood-pressure reducing action in SHR (spontaneously hypertensive rats). The note with it: oral, L-methyldopa 40 mg/kg, test compound equimolar amount. The format is in vivo, rat. As to the method: The blood-pressure reducing action of the compounds obtained in the above-mentioned Examples was confirmed with the use of SHR (spontaneously hypertensive rats) in accordance with the method of Watson and Ludden (L. S. Watson & C. T. Ludden in "New Antihypertensive Drugs", A. Scriabin and C. S. Sweet, Ed., Spectrum Publications, New York, 1976, page 87). As a control compound, L-methyldopa was orally administered in a dose of 40 mg/kg, while an equimolar amount of a test compound was orally given, to examine the effect. Results are shown in Table 8, where the marks, (+++), (++), (+) and (±), indicate the blood-pressure reducing actions of 31 to 40 mmHg, 21 to 30 mmHg, 11 to 20 mmHg and not more than 10 mmHg, respectively.

Assay [2] deals with mortal activity of arachidonic acid in mouse. The assay can be described thus: Suppression of mortal activity of arachidonic acid in mouse. The conditions noted are these: 300 mg/kg oral, 1 hour before arachidonic acid 60 mg/kg i.v., male JCL:ICR mice, read-out: Number of survival mice/Total number of mice (converted). It counts as in vivo. The procedure:
Male mice (four weeks old, JCL:ICR) were used in this experimental. Quinone derivatives were suspended with arabin to administrate per OS. After one hour of the oral administration at a dose of 300 mg/kg of a quinone derivative, an aqueous solution of arachidonic acid (20 mg/ml, pH 8.8) was intravenously administrated at dose of 60 mg/kg of arachidonic acid from mouse tail vein. The suppressive effects were shown in Table 10 by the ratio of the number of survival mice to the total number of mice administrated the test compound.

Assay [3] concerns SRS-A (slow reacting substance of anaphylaxis) production and release. Briefly: Inhibitory effect on SRS-A (slow reacting substance of anaphylaxis) production and release in sensitised guinea-pig lung fragments. The format is cell-based. The conditions noted are these: guinea-pig lung fragments sensitised with egg albumin. As to the method: The inhibitory effect on SRS-A production and release was examined by the method of Orange and Moore (J. Immunol., 116, 392-397, 1976). Quinone derivatives were added to guinea-pig lung fragments sensitised with egg albumin as the antigen, and the amount of SRS-A produced and released as a consequence was assayed by the method of Brocklehust (J. Physiol., 151, 416-435, 1960).

With `C[C@](N)(Cc1ccc(O)c(O)c1)C(=O)O` [L-Methyldopa, reference compound], the Blood-pressure reducing action result in assay [1] was “+++ (31 to 40 mmHg)”. Consider `COC1=C(OC)C(=O)C(C/C=C(\C)CC/C=C(\C)CCC(=O)N(C(=O)NC2CCCCC2)C2CCCCC2)=C(C)C1=O` [Ia-48], for which the responders at 300 mg/kg in assay [2] is 40%. In the case of `COC1=C(OC)C(=O)C(C/C=C(\C)CC/C=C(\C)CC/C=C(\C)CC/C=C(\C)CC/C=C(\C)CC/C=C(\C)CC/C=C(\C)CC/C=C(\C)CC/C=C(\C)CC/C=C(\C)CCC(=O)O)=C(C)C1=O` [IIa-15], the Blood-pressure reducing action entry in assay [1] is recorded as “++ (21 to 30 mmHg)”. A word on the inhibition: it is the relative decrease from the control value, in per cent. For `COC1=C(OC)C(=O)C(C/C=C(\C)CC/C=C(\C)CC/C=C(\C)CCC(=O)N2CCN(Cc3ccc4c(c3)OCO4)CC2)=C(C)C1=O` [Ia-11], in assay [2], the responders at 300 mg/kg was 80%. Moreover, the inhibition at 1 µM in assay [3] (Cavia porcellus) amounted to 15 ± 5.6%. On to `COC1=C(OC)C(=O)C(C/C=C(\C)CC/C=C(\C)CCC(=O)N2CCOCC2)=C(C)C1=O` [Ia-9], for which, in assay [2], the responders at 300 mg/kg was 40%. As for `CC1=C(C)C(=O)C(C/C=C(\C)CC/C=C(\C)CC/C=C(\C)CC/C=C(\C)CCC(=O)O)=C(C)C1=O` [IIa-9], the Blood-pressure reducing action entry in assay [1] is recorded as “++ (21 to 30 mmHg)”. Regarding `COc1cc(CN2CCN(C(=O)CC/C(C)=C/CC/C(C)=C/CC/C(C)=C/CC3=C(C)C(=O)c4ccccc4C3=O)CC2)cc(OC)c1OC` [Ia-28], the responders at 300 mg/kg in assay [2] was 100%.

Take `CC1=C(C/C=C(\C)CC/C=C(\C)CC/C=C(\C)CCC(=O)O)C(=O)c2ccccc2C1=O` [IIa-4]: in assay [3] (Cavia porcellus), the inhibition at 1 µM was 24.3 ± 4.2%. Further, in assay [1], the Blood-pressure reducing action entry is reported as “+++ (31 to 40 mmHg)”. `NC1=NN(c2cccc(C(F)(F)F)c2)CC1` [BW-755c, reference compound]: the inhibition at 10 µM in assay [3] (Cavia porcellus, 10 μM) is 4.7 ± 3.7%. In addition, in assay [3] (Cavia porcellus, 100 μM), the inhibition at 100 µM turned out to be 15.3 ± 4.3%. On to `COC1=C(OC)C(=O)C(C/C=C(\C)CC/C=C(\C)CC/C=C(\C)CCC(=O)O)=C(C)C1=O` [IIa-12], for which the inhibition at 1 µM in assay [3] (Cavia porcellus) was 21.8 ± 8.5%. Moreover, the Blood-pressure reducing action entry in assay [1] was “++ (21 to 30 mmHg)”. `COC1=C(OC)C(=O)C(C/C=C(\C)CC/C=C(\C)CC/C=C(\C)CC/C=C(\C)CC/C=C(\C)CC/C=C(\C)CC/C=C(\C)CCC(=O)O)=C(C)C1=O` [IIa-14]: the Blood-pressure reducing action result in assay [1] is on record as “++ (21 to 30 mmHg)”. As for `COC1=C(OC)C(=O)C(C/C=C(\C)CCC(=O)N2CCN(C/C=C(\C)CC/C=C(\C)CCC=C(C)C)CC2)=C(C)C1=O` [Ia-3], the responders at 300 mg/kg in assay [2] is 40%.

On to “Sodium baikalein phosphate [BSP, reference compound]”, for which the “Inhibitory Effect on SRS-A Production (% inhibition of production and release)” value is 18.7 ± 6.6% in assay [3] (10 μM) and 50.8 ± 10.7% in assay [3] (100 μM). On to `COC1=C(OC)C(=O)C(C/C=C(\C)CC/C=C(\C)CCC(=O)OC/C=C(\C)CC/C=C(\C)CCC=C(C)C)=C(C)C1=O` [IIa-16], for which the Blood-pressure reducing action result in assay [1] is “++ (21 to 30 mmHg)”. As for `CC1=C(C)C(=O)C(C/C=C(\C)CC/C=C(\C)CCC(=O)O)=C(C)C1=O` [IIa-7], the inhibition at 10 µM in assay [3] (Cavia porcellus, 10 μM) amounted to 40.2 ± 7.3%.

As to `COC1=C(OC)C(=O)C(C/C=C(\C)CC/C=C(\C)CC/C=C(\C)CC/C=C(\C)CCC(=O)O)=C(C)C1=O` [IIa-13], in assay [1], the Blood-pressure reducing action result is recorded as “++ (21 to 30 mmHg)”.

`COC1=C(OC)C(=O)C(C/C=C(\C)CC/C=C(\C)CCC(=O)O)=C(C)C1=O` [IIa-10]: the inhibition at 1 µM in assay [3] (Cavia porcellus) was determined as 35 ± 6.3%.

Take `CC(C)=CCC/C(C)=C/COC(=O)CC/C(C)=C/CC/C(C)=C/CC1=C(C)C(=O)c2ccccc2C1=O` [IIa-20]: the Blood-pressure reducing action entry in assay [1] is “++ (21 to 30 mmHg)”. The same measure, in the same setting: to `CC(C)=CCC/C(C)=C/CC/C(C)=C/COC(=O)CC/C(C)=C/CC/C(C)=C/CC1=C(C)C(=O)c2ccccc2C1=O` [IIa-21] belongs “++ (21 to 30 mmHg)”. Turning to `CC1=C(C/C=C(\C)CC/C=C(\C)CCC(=O)O)C(=O)c2ccccc2C1=O` [IIa-3], the responders at 300 mg/kg in assay [2] is 40%. In addition, in assay [3] (Cavia porcellus, 10 μM), the inhibition at 10 µM was determined as 38.6 ± 4.3%. Further, the Blood-pressure reducing action result in assay [1] is “+++ (31 to 40 mmHg)”. Take `COC1=C(OC)C(=O)C(C/C=C(\C)CC/C=C(\C)CCC(=O)OC/C=C(\C)CCC=C(C)C)=C(C)C1=O` [IIa-19]: the Blood-pressure reducing action result in assay [1] is given as “++ (21 to 30 mmHg)”. For the compound `COC1=C(OC)C(=O)C(C/C=C(\C)CC/C=C(\C)CCC(N)=O)=C(C)C1=O` [Ia-7], the responders at 300 mg/kg in assay [2] is 40%. In the case of `CC1=C(C/C=C(\C)CC/C=C(\C)CC/C=C(\C)CC/C=C(\C)CCC(=O)O)C(=O)c2ccccc2C1=O` [IIa-5], the Blood-pressure reducing action result in assay [1] is reported as “+++ (31 to 40 mmHg)”. Regarding `COC1=C(OC)C(=O)C(C/C=C(\C)CC/C=C(\C)CCC(=O)N2CCN(Cc3cc(OC)c(OC)c(OC)c3)CC2)=C(C)C1=O` [Ia-6], the responders at 300 mg/kg in assay [2] was 40%. Moreover, the inhibition at 1 µM in assay [3] (Cavia porcellus) worked out at 26.8 ± 2.2%.
